Assay results: patent EP0748800A2, “Pyrimidinedione, pyrimidinetrione, triazinedione, tetrahydroquinazolinedione derivatives as alpha-1-adrenergic receptor antagonists” (priority 1995, dated 1996)

Legend:
anesthetized dog [1] = assay: Dog in vivo intraurethral pressure assay (hypogastric nerve stimulation); conditions: i.v., increasing doses, relative to DAP
Protocol: (§1) The following describes an in vivo assay for measuring the relative effect of test compounds on hypogastric nerve stimulation-induced increases in intraurethral pressure and phenylephrine-induced increases in diastolic blood pressure in anesthetized dog.
(§2) Mongrel dogs (10 to 20 kg) were fasted for 12 to 18 hours and anesthetized with pentobarbital sodium (35 mg/kg, i.v.). An endotracheal tube was inserted and thereafter the lungs were mechanically ventilated with room air. The right femoral vein was isolated and cannulated with two polyethylene cannulae, one for the administration of a continuous infusion of pentobarbital sodium (5 to 10 mg/kg/hr) and the other for bolus administration of test substances. The right femoral artery was isolated and cannulated to the abdominal aorta with a fluid filled polyethylene cannula connected to an external pressure transducer for monitoring diastolic aortic pressure (DAP). The bladder was exposed via a ventral midline abdominal incision and emptied of urine through a 22 gauge needle. The bladder was cannulated through a stab incision with a water filled balloon catheter connected to an external pressure transducer for monitoring prostatic intraurethral pressure (IUP). The right hypogastric nerve (HGN) was carefully isolated and attached to a Dastre's electrode for nerve stimulation. […]

anesthetized dog [2] = conditions: in vivo, iv
Protocol: as §1, §2

α1-adrenoceptor [3] = conditions: relative to rabbit isolated urinary bladder smooth muscle; agonist norepinephrine
Description: The following describes in vitro assays for measuring the relative effect of test compounds on α1-adrenoceptor mediated contraction of rat, isolated aortic smooth muscle and rabbit, isolated urinary bladder smooth muscle.
Thoracic aorta were isolated from rats and immediately immersed in Krebs' solution (comprising in mM concentrations: NaCl, 118.5; NaHCO3, 25; dextrose, 5; KCl, 4.8; CaCl2, 2.5; MgSO4, 1.2; KH2PO4, 1.2; cocaine, 0.03; corticosterone, 0.03; propranolol, 0.001; ascorbic acid, 0.1; and indomethacin, 0.01). The aortas were dissected free from extraneous tissue and then a cross sectional ring approximately 3 mm in length was cut from the most proximal segment. […] A resting tension of 1 g was applied to each aortic ring and thereafter periodically readjusted to maintain a 1 g resting tension throughout the duration of the assay. […]
The tissue was then exposed to solution free of agonist, replacing the solution twice every 5 minutes for 30 minutes. After baseline tension was established and readjusted to 1 g, the tissue was exposed to bath solution containing the test compound, replacing the solution every 15 minutes for 60 minutes. […]
The concentration ratio (CR) of agonist necessary to produce equiactive responses in the absence and presence of the test compound was determined. […]

α1-adrenoceptor [4] = conditions: relative to human isolated arterial smooth muscle; agonist norepinephrine
Description: (§3) The following describes in vitro assays for measuring the relative effect of test compounds on α1-adrenoceptor mediated contractions of human, isolated arterial and urinary bladder smooth muscle.
Human prostatic and bladder neck smooth muscle tissue was obtained following radical cystoprostatectomies or radical prostatectomies and immediately immersed in Krebs' solution. The prostatic and bladder tissue was dissected free from extraneous tissue and then strips of tissue 0.8 to 1.2 cm in length and 3 to 5 mm in width were cut and suspended vertically in 10 ml tissue baths and bathed in Kreb's solution maintained at 37°C and constantly aerated with a 95% O2 and 5% CO2 gas mixture. A resting tension of 0.75 to 1 g was applied to each muscle strip and thereafter periodically readjusted to maintain a 1 g resting tension throughout the duration of the assay. […]
(§4) The tissue was then exposed to solution free of norepinephrine, replacing the solution twice every 5 minutes for 30 minutes. After baseline tension was established and readjusted to 1 g, the tissue was exposed to bath solution containing the test compound, replacing the solution every 15 minutes for 60 minutes. […]
(§5) The concentration ratio (CR) of norepinephrine necessary to produce equiactive responses in the absence and presence of the test compound was determined. […]

α1-adrenoceptor [5] = conditions: relative to human prostatic/bladder neck smooth muscle; agonist norepinephrine
Protocol: as §3
Human arterial blood vessels were obtained post-mortem and immediately immersed in cold physiological saline solution. Within 24 hours of removal the isolated arterial tissue was placed in Krebs' solution (comprising in mM concentrations: NaCl, 118.5; NaHCO3, 25; dextrose, 5; KCl, 4.8; CaCl2, 2.5; MgSO4, 1.2; KH2PO4, 1.2; cocaine, 0.03; corticosterone, 0.03; propranolol, 0.001; ascorbic acid, 0.1; and indomethacin, 0.01). The arteries were dissected free from extraneous tissue and then cut into cross sectional rings approximately 3 mm in length. […] A resting tension of 1 to 1.5 g was applied to each ring and thereafter periodically readjusted to maintain a 1 g resting tension throughout the duration of the assay. […]
as §4, §5

SMILES: COc1cc2nc(N3CCN(C(=O)c4ccco4)CC3)nc(N)c2cc1OC [prazosin]
- inhibition of HGN stimulation-induced increases in IUP (anesthetized dog [1]): inhibited increases in IUP and DAP in a similar fashion
- inhibition of phenylephrine-induced increases in DAP (anesthetized dog [2]): inhibited increases in IUP and DAP in a similar fashion
- inhibition of α1-adrenoceptor mediated contractions of rat, isolated aortic smooth muscle (α1-adrenoceptor [3]): selectively inhibited
- inhibition of α1-adrenoceptor mediated contractions of human, isolated prostatic and bladder neck smooth muscle (α1-adrenoceptor [4]): non-selectively inhibited
- inhibition of α1-adrenoceptor mediated contractions of human, isolated arterial smooth muscle (α1-adrenoceptor [5]): non-selectively inhibited
